# Laboratory results: patent US20250186374A1 (priority 2022, published 2025)
# “Also recorded” adds a separate entry of the source. Where two headings read alike, the source gives them in different places.
# What was measured:
# SARS-CoV-2 [1] = assay: microbe, parasite or virus in culture; assay type: cell-based
# SARS-CoV-2 3CLpro [2] = biological target: T1, SARS-CoV-2 3CLpro (Severe acute respiratory syndrome coronavirus 2, UniProt P0DTD1); assay: biochemical; assay type: biochemical; conditions: for inhibitory activity in library screen: compound concentration of 100 μM
# SARS-CoV-2 3CLpro [3] = biological target: T1, SARS-CoV-2 3CLpro; assay: Enzyme kinetics, Lineweaver-Burk plots; assay type: biochemical; conditions: for Inhibition Type: Michaelis-Menten kinetics; for effect on Vmax of 3CLpro: compared to the DMSO control, 5 μM or 10 μM inhibitor
# SARS-CoV-2 3CLpro [4] = biological target: T1, SARS-CoV-2 3CLpro; assay: Inhibition of cleavage of TriPro substrate protein, SDS-PAGE; assay type: biochemical; conditions: 0.8 μM 3CLpro
# SARS-CoV-2 [5] = assay: Clinical examples 1-3, treatment of COVID-19 / SARS-CoV-2 positive subjects; assay type: in vivo
# Description: Example 1: The following example describes treatment strategies for COVID-19 involving oral administration of an antiviral composition.
# A physician diagnoses a patient with COVID-19. The patient is experiencing mild symptoms. […] The patient is to take the tablet once a day for one week. The patient is highly responsive and their symptoms go away after 2 days.
# Example 2: The following example describes treatment strategies for intravenous administration of an antiviral composition.
# A diabetic patient is hospitalized with severe COVID-19. […] The medication is added to an IV solution and delivered intravenously, twice a day for three days. The patient is highly responsive and experiences a reduction in their symptoms during the initial treatment period.
# A subject tests positive for SARS-CoV-2 but is asymptomatic. […] The subject sprays the inside of their nose once a day for 5 days. The subject remains asymptomatic.
# SARS-CoV-2 3CLpro [6] = biological target: T1, SARS-CoV-2 3CLpro; assay: Surface plasmon resonance binding to immobilized 3CLpro; conditions: 0.164-100 μM, 25° C.
# SARS-CoV-2 3CLpro [7] = biological target: T1, SARS-CoV-2 3CLpro; assay: Microscale thermophoresis ligand binding; conditions: 10 nM labeled 3CLpro; read-out: KD (MST)
# Description: Monolith NT.115 Microscale Thermophoresis (MST) instrument (NanoTemper Technologies) was used for this assay. Monolith protein labeling kit RED-NHS was purchased from NanoTemper Technologies. Briefly, 3CLpro protein was labeled using RED-NHS labelling kit (NanoTemper) following the manufacturer's instructions. […] The assay was read in 20% excitation power and medium MST power.
# SARS-CoV 3CLpro = SARS-CoV 3CLpro (Severe acute respiratory syndrome coronavirus, UniProt P0C6X7); conditions: cited from earlier work
# SARS-CoV = conditions: cited from earlier work
# SARS-CoV-2 3CLpro [8] = biological target: T1, SARS-CoV-2 3CLpro; conditions: at 50 μM concentration; cited from earlier work
# [9] = Severe acute respiratory syndrome coronavirus 2, 48 h
# [10] = FRET peptide substrate, 200 nM 3CLpro, read-out: SARS-CoV-2 3CLpro IC50
# [11] = Severe acute respiratory syndrome coronavirus 2, Table 2 and text, SARS-CoV-2 viral replication, cell-based antiviral assay
smiles,measurement,setting,value
"O=C(Nc1ccc(C(F)(F)F)cc1Cl)c1cccc([N+](=O)[O-])c1O [JMX0310, N-(2-Chloro-4-(trifluoromethyl)phenyl)-2-hydroxy-3-nitrobenzamide]",CC50,"A549 and Vero E6 cells; Table 1, cell line not given",10.1 µM
same,EC50,SARS-CoV-2 [1]; [9],2.41 µM
O=C(Nc1ccc(F)c(F)c1)c1cc(Cl)ccc1O [JMX0321],CC50 at 48 h,in vitro,3.76 µM
same,EC50,SARS-CoV-2 [1]; [9],1.19 µM
O=C(Nc1cc(F)cc(C(F)(F)F)c1)c1ccc(Cl)cc1O [JMX0887],CC50 at 48 h,in vitro,4.18 µM
same,EC50 value (strong inhibition of SARS-CoV-2 virus),SARS-CoV-2 [1],sub-micromolar range
same,EC50,SARS-CoV-2 [1]; [9],0.92 µM
CC(C)[C@H](NC(=O)c1cc(Cl)ccc1O)C(=O)Nc1ccc(C(F)(F)F)cc1Cl [JMX0672],CC50 at 48 h,in vitro,8.34 µM
same,EC50,SARS-CoV-2 [1]; [9],1.92 µM
CC(C)[C@H](NC(=O)c1cc(Cl)ccc1O)C(=O)Nc1cc(C(F)(F)F)cc(C(F)(F)F)c1 [JMX0679],CC50 at 48 h,in vitro,7.14 µM
same,EC50,SARS-CoV-2 [1]; [9],2.51 µM
O=C(Nc1ccc([N+](=O)[O-])cc1Cl)c1cccc([N+](=O)[O-])c1O [JMX0207],CC50 at 48 h,in vitro,13.2 µM
same,EC50,SARS-CoV-2 [1]; [9],1.22 µM
CC(C)[C@H](NC(=O)c1cc(Cl)ccc1O)C(=O)Nc1ccc(F)c(F)c1 [JMX0681],CC50 at 48 h,in vitro,> 10 µM
same,EC50,SARS-CoV-2 [1]; [9],9.75 µM
CC1(Nc2ccc(NC(=O)c3cc(Cl)ccc3O)c(Cl)c2)CCCC1 [JMX0510-2],CC50,A549 and Vero E6 cells,11.5 µM
same,EC50,SARS-CoV-2 [1],4.88 µM
O=C(Nc1ccc(C(F)(F)F)cc1Cl)c1cc(Cl)ccc1O [JMX0308],EC50 value (strong inhibition of SARS-CoV-2 virus),SARS-CoV-2 [1],sub-micromolar range
same,EC50,SARS-CoV-2 [1]; [9],0.806 µM
O=C(Nc1ccc([N+](=O)[O-])cc1)c1cc(Cl)ccc1O [JMX0895],EC50 value (strong inhibition of SARS-CoV-2 virus),SARS-CoV-2 [1],sub-micromolar range
same,EC50,SARS-CoV-2 [1]; [9],0.665 µM
"Cl.NCCOc1ccc(Cl)cc1C(=O)NCC(=O)Nc1ccc([N+](=O)[O-])cc1Cl [JMX0286, 2-(2-Aminoethoxy)-5-chloro-N-(2-((2-chloro-4-nitrophenyl)amino)-2-oxoethyl)benzamide hydrochloride]",CC50,"A549 and Vero E6 cells; Table 1, cell line not given",3.78 µM
same,IC50,SARS-CoV-2 3CLpro [2]; [10],4.8 µM
same,inhibitory activity in library screen,SARS-CoV-2 3CLpro [2],prominent inhibitory activity
same,Inhibition Type,SARS-CoV-2 3CLpro [3]; hydrochloride,non-competitive inhibition mechanism
same,effect on Vmax of 3CLpro,SARS-CoV-2 3CLpro [3],reduced the Vmax values
same,inhibition of cleavage of the TriPro substrate protein,SARS-CoV-2 3CLpro [4]; hydrochloride,inhibited the cleavage of the TriPro substrate protein in a dose dependent manner; also recorded: inhibit the digestion of protein substrates in a dose dependent manner
same,side effects,SARS-CoV-2 [5]; Example 1: oral tablet 50 mg once a day for one week,No side effects are reported
same,clinical outcome,"SARS-CoV-2 [5]; Example 1: oral tablet 50 mg once a day for one week, mild COVID-19",completely recovers
same,Kd,"SARS-CoV-2 3CLpro [6]; read-out: KD (SPR, steady-state affinity model)",9.8 µM
same,EC50,SARS-CoV-2 [1]; [9],2.25 µM
"O=C(Nc1cc(F)cc(C(F)(F)F)c1)c1cccc([N+](=O)[O-])c1O [JMX0317, N-(3-Fluoro-5-(trifluoromethyl)phenyl)-2-hydroxy-3-nitrobenzamide]",CC50,"A549 and Vero E6 cells; Table 1, cell line not given",11.7 µM
same,EC50,SARS-CoV-2 [1]; [9],4.03 µM
CC(C)[C@H](NC(=O)c1cc(Cl)ccc1O)C(=O)Nc1ccc([N+](=O)[O-])cc1Cl [JMX0281],CC50 at 48 h,in vitro,8.32 µM
same,EC50,SARS-CoV-2 [1]; [9],2.08 µM
O=C(Nc1cc(C(F)(F)F)cc(C(F)(F)F)c1)c1cc(Cl)ccc1O [JMX0325],CC50 at 48 h,in vitro,1.81 µM
same,EC50 value (strong inhibition of SARS-CoV-2 virus),SARS-CoV-2 [1],sub-micromolar range
same,EC50,SARS-CoV-2 [1]; [9],0.123 µM
O=C(NC(Cc1ccccc1)C(=O)Nc1ccc([N+](=O)[O-])cc1Cl)c1cc(Cl)ccc1O (centres unmarked) [JMX0285],CC50 at 48 h,in vitro,6.13 µM
same,EC50,SARS-CoV-2 [1]; [9],3.03 µM
"CC(C)(C)OC(=O)NCCOc1ccc(Cl)cc1C(=O)NCC(=O)Nc1ccc([N+](=O)[O-])cc1Cl [JMX0301, tert-Butyl(2-(4-chloro-2-((2-((2-chloro-4-nitrophenyl)amino)-2-oxoethyl)carbamoyl)phenoxy)ethyl)carbamate]",Kd,SARS-CoV-2 3CLpro [7],34 µM
same,IC50,SARS-CoV-2 3CLpro [2]; [10],4.5 µM
same,inhibitory activity in library screen,SARS-CoV-2 3CLpro [2],prominent inhibitory activity
same,Inhibition Type,SARS-CoV-2 3CLpro [3],non-competitive inhibition mechanism
same,effect on Vmax of 3CLpro,SARS-CoV-2 3CLpro [3],reduced the Vmax values
same,inhibition of cleavage of the TriPro substrate protein,SARS-CoV-2 3CLpro [4],inhibited the cleavage of the TriPro substrate protein in a dose dependent manner; also recorded: inhibit the digestion of protein substrates in a dose dependent manner
same,clinical outcome,"SARS-CoV-2 [5]; Example 2: 100 mg with remdesivir 100 mg intravenously twice a day for three days, then 50 mg tablet, severe COVID-19",completely recovers
same,side effects,"SARS-CoV-2 [5]; Example 2: intravenous with remdesivir, then tablet",No side effects are reported
same,"KD (SPR, steady-state affinity model)",SARS-CoV-2 3CLpro [6],did not show binding
same,EC50 (μM),"SARS-CoV-2 [1]; Table 2, SARS-CoV-2 viral replication, cell-based antiviral assay",No Dose
O=C(Nc1ccc([N+](=O)[O-])c(Cl)c1)c1cc(Cl)ccc1O [JMX0941],inhibitory activity in library screen,SARS-CoV-2 3CLpro [2],prominent inhibitory activity
same,Inhibition Type,SARS-CoV-2 3CLpro [3],non-competitive inhibition mechanism
same,effect on Vmax of 3CLpro,SARS-CoV-2 3CLpro [3],reduced the Vmax values
same,inhibition of cleavage of the TriPro substrate protein,SARS-CoV-2 3CLpro [4],inhibited the cleavage of the TriPro substrate protein in a dose dependent manner; also recorded: inhibit the digestion of protein substrates in a dose dependent manner
same,side effects,SARS-CoV-2 [5]; Example 3: intranasal spray 10 mg once a day for 5 days,No side effects are reported
same,SARS-CoV-2 test on the 6th day,"SARS-CoV-2 [5]; Example 3: intranasal spray 10 mg once a day for 5 days, asymptomatic subject",negative for SARS-CoV-2
same,EC50,SARS-CoV-2 [1]; [9],1.75 µM
same,EC50,SARS-CoV-2 [1]; [11],1.7 µM
CC(C)C[C@H](NC(=O)c1cc(Cl)ccc1O)C(=O)Nc1ccc([N+](=O)[O-])cc1Cl [JMX0671],CC50 at 48 h,in vitro,8.03 µM
same,EC50,SARS-CoV-2 [1]; [9],1.56 µM
O=C(Nc1cc(F)cc(C(F)(F)F)c1)c1cc(Cl)ccc1O [JMX0312],CC50 at 48 h,in vitro,1.97 µM
same,EC50,SARS-CoV-2 [1]; [9],1.13 µM
"CC(C)(C)NC(=O)N[C@H](C(=O)N1C[C@H]2[C@@H]([C@H]1C(=O)NC(CC1CCC1)C(=O)C(N)=O)C2(C)C)C(C)(C)C (some centres unmarked) [Boceprevir, boceprevir, reference compound]",EC50,SARS-CoV-2 [1]; [11],15.6 µM
"O=C(Nc1cc(C(F)(F)F)cc(C(F)(F)F)c1)c1cccc([N+](=O)[O-])c1O [JMX0330, N-(3,5-Bis(trifluoromethyl)phenyl)-2-hydroxy-3-nitrobenzamide]",CC50,"A549 and Vero E6 cells; Table 1, cell line not given",10.2 µM
same,EC50 value (strong inhibition of SARS-CoV-2 virus),SARS-CoV-2 [1],sub-micromolar range
same,EC50,SARS-CoV-2 [1]; [9],0.498 µM
C[C@H](NC(=O)c1cc(Cl)ccc1O)C(=O)Nc1ccc([N+](=O)[O-])cc1Cl [JMX0674],CC50 at 48 h,in vitro,> 10 µM
same,EC50,SARS-CoV-2 [1]; [9],9.75 µM
CC(C)[C@H](NC(=O)c1cc(Cl)ccc1O)C(=O)Nc1cc(F)cc(C(F)(F)F)c1 [JMX0680],CC50 at 48 h,in vitro,10.1 µM
same,EC50,SARS-CoV-2 [1]; [9],4.57 µM
CCC(C)[C@H](NC(=O)c1cc(Cl)ccc1O)C(=O)Nc1ccc([N+](=O)[O-])cc1Cl (some centres unmarked) [JMX0673],CC50 at 48 h,in vitro,5.2 µM
same,EC50,SARS-CoV-2 [1]; [9],1.74 µM
"O=C(Nc1ccc([N+](=O)[O-])cc1Cl)c1cc(Cl)ccc1O [Niclosamide, niclosamide]",inhibitory activity against SARS-CoV 3CLpro,SARS-CoV 3CLpro,no obvious inhibitory activity
same,IC50,SARS-CoV-2 3CLpro [2],> 50 µM
same,EC50,"SARS-CoV; Vero E6 cells, read-out: EC50, SARS-CoV replication",< 0.1 µM
same,concentration suppressing the cytopathic effect (CPE) of SARS-CoV,SARS-CoV; as low as,1 µM
same,inhibition of the SARS-CoV-2 3CLpro,SARS-CoV-2 3CLpro [8],does not inhibit
